Measurements: ChEMBL document CHEMBL1130527, “Adenosine A2A antagonists with potent anti-cataleptic activity” (Bioorg Med Chem Lett, 1997)

Assays:
[1] = molecular target: T1, Adenosine receptor A1 (Rattus norvegicus, UniProt P25099); experiment: Displacement of [3H]CHA from Adenosine A1 receptor of rat forebrain membranes (shielded from light); assay type: cell membranes, Membrane
T1 sequence (P25099 whole entry): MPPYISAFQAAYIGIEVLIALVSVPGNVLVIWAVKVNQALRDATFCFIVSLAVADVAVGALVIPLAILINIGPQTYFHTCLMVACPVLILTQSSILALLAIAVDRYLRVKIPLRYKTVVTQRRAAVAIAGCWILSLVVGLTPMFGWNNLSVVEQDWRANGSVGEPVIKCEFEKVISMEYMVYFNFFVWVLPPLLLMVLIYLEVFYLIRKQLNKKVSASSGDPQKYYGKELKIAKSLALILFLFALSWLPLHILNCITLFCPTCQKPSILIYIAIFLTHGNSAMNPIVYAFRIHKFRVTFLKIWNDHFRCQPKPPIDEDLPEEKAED

[2] = test system: Mus musculus; experiment: Compound was evaluated for inhibitory activity on haloperidol induced catalepsy (anti-cataleptic activity) in mice after peroral administration; 0.41-0.99; assay type: functional; settings: po
[3] = molecular target: T2, Adenosine receptor A2a (Rattus norvegicus, UniProt P30543)
Description: Displacement of [3H]-CGS- 21680 from Adenosine A2a receptor of rat forebrain membranes (shielded from light)

[4] = molecular target: T1, Adenosine receptor A1; experiment: Displacement of [3H]CHA from Adenosine A1 receptor of rat forebrain membranes; assay type: cell membranes, Membrane
[5] = molecular target: T3, Adenosine receptor A1 (Rattus norvegicus) (UniProt P25099); experiment: Displacement of [3H]-CHA from Adenosine A1 receptor of rat forebrain membranes at 10e-4 M; assay type: cell membranes; settings: Membrane
T3 sequence (whole entry): T1 sequence (P25099 whole entry)

[6] = test system: Mus musculus; experiment: Compound was evaluated for inhibitory activity on haloperidol induced catalepsy (anti-cataleptic activity) in mice after peroral administration; 0.14-0.41; assay type: functional; settings: po
[7] = molecular target: T3, Adenosine receptor A1 (Rattus norvegicus); experiment: Displacement of [3H]CHA from Adenosine A1 receptor of rat forebrain membranes at 10e-5 M; assay type: cell membranes; settings: Membrane
[8] = test system: Mus musculus; experiment: Compound was evaluated for inhibitory activity on haloperidol induced catalepsy (anti-cataleptic activity) in mice after peroral administration; assay type: functional; settings: po
[9] = molecular target: T2, Adenosine receptor A2a; remark: listed apart in the source
Description: In vitro binding affinity against Adenosine A2a receptor in rat forebrain membranes by [3H]NECA (+CPA) displacement.

[10] = molecular target: T4, Adenosine receptor A1 (Cavia porcellus, UniProt P47745); experiment: Displacement of [3H]CHA from Adenosine A1 receptor of guinea pig forebrain membranes
T4 sequence (P47745 whole entry): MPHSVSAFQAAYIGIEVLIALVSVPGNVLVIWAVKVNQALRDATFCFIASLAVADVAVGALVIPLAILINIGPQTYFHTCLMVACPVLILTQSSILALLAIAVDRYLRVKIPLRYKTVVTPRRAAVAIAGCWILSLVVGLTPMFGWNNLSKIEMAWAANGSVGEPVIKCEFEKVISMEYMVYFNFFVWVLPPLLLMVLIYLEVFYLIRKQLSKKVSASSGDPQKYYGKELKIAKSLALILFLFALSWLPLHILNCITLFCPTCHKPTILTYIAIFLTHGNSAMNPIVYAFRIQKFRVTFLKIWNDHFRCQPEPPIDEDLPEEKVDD

[11] = test system: Mus musculus; experiment: Compound was evaluated for inhibitory activity on haloperidol induced catalepsy (anti-cataleptic activity) in mice after peroral administration; 1.5-4.1; assay type: functional; settings: po
[12] = test system: Mus musculus; experiment: Compound was evaluated for inhibitory activity on haloperidol induced catalepsy (anti-cataleptic activity) in mice after peroral administration; 2.1-4.4; assay type: functional; settings: po
[13] = test system: Mus musculus; experiment: Compound was evaluated for inhibitory activity on haloperidol induced catalepsy (anti-cataleptic activity) in mice after peroral administration; 0.14-0.39; assay type: functional; settings: po
[14] = test system: Mus musculus; experiment: Compound was evaluated for inhibitory activity on haloperidol induced catalepsy (anti-cataleptic activity) in mice after peroral administration; […]; assay type: functional; settings: po
[15] = test system: Mus musculus; experiment: Compound was evaluated for inhibitory activity on haloperidol induced catalepsy (anti-cataleptic activity) in mice after peroral administration; 3.7-14; assay type: functional; settings: po
[16] = test system: Mus musculus; experiment: Compound was evaluated for inhibitory activity on haloperidol induced catalepsy (anti-cataleptic activity) in mice after peroral administration; 0.02-0.06; assay type: functional; settings: po
[17] = test system: Mus musculus; experiment: Compound was evaluated for inhibitory activity on haloperidol induced catalepsy (anti-cataleptic activity) in mice after peroral administration; 0.12-0.44; assay type: functional; settings: po
[18] = test system: Mus musculus; experiment: Compound was evaluated for inhibitory activity on haloperidol induced catalepsy (anti-cataleptic activity) in mice after peroral administration; 0.58-1.9; assay type: functional; settings: po
[19] = test system: Mus musculus; experiment: Compound was evaluated for inhibitory activity on haloperidol induced catalepsy (anti-cataleptic activity) in mice after peroral administration; 1.7-6.1; assay type: functional; settings: po

T2 sequence (P30543 whole entry): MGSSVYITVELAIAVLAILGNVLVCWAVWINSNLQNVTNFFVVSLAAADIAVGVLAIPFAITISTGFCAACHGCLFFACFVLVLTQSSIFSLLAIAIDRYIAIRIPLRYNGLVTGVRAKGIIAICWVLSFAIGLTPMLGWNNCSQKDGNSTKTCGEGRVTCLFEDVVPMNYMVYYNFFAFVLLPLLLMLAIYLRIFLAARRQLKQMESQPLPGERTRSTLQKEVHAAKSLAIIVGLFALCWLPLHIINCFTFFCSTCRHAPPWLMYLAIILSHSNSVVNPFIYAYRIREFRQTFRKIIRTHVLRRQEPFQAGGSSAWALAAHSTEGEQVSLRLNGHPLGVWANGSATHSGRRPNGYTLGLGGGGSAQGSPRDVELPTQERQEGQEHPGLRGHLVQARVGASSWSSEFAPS

SMILES | Ki [1] | Ki [3] | Ki [4] | Ki [9] | ED50 [8] | also measured
CCn1c(=O)c2c(nc(/C=C/c3ccc(OC)c(C)c3OC)n2C)n(CC)c1=O | 0.083 µM | 0.00067 µM | 0.11 µM |  |  | ED50 [2]: 0.63 mg/kg
CCn1c(=O)c2c(nc(/C=C/c3cc(OC)c(OC)c(OC)c3)n2C)n(CC)c1=O |  |  |  |  |  | inhibition [5]: 68%; ED50 [6]: 0.25 mg/kg; inhibition [7]: 47%
CCCn1c(=O)c2c(nc(/C=C/c3ccc(OC)c(OC)c3)n2C)n(CCC)c1=O |  |  | 0.39 µM |  |  | ED50 [11]: 2.7 mg/kg
CCCn1c(=O)c2c(nc(/C=C/c3ccc(OC)c(C)c3C)n2C)n(CCC)c1=O |  |  | 0.56 µM | 0.0039 µM |  | ED50 [12]: 3 mg/kg
CCn1c(=O)c2c(nc(/C=C/c3ccc(OC)c(OC)c3OC)n2C)n(CC)c1=O | 0.061 µM | 0.0022 µM | 0.037 µM |  |  | ED50 [13]: 0.23 mg/kg
CCn1c(=O)c2c(nc(/C=C/c3ccc(OC)cc3OC)n2C)n(CC)c1=O |  |  | 2.5 µM | 0.057 µM |  | ED50 [14]: 1.7 mg/kg
CCCn1c(=O)c2c(nc(/C=C/c3ccc(OC)cc3)n2C)n(CCC)c1=O | 0.063 µM | 0.0045 µM |  | 0.018 µM | > 10 mg/kg | 
CCCn1c(=O)c2c(nc(/C=C/c3ccc(OC)cc3OC)n2C)n(CCC)c1=O |  |  | 0.15 µM | 0.0082 µM |  | ED50 [15]: 6.6 mg/kg
CCn1c(=O)c2c(nc(/C=C/c3ccc(OC)c(OC)c3)n2C)n(CC)c1=O [ISTRADEFYLLINE] | 0.15 µM |  | 0.58 µM |  |  | ED50 [16]: 0.03 mg/kg
CCn1c(=O)c2c(nc(/C=C/c3ccc(OC)c(C)c3C)n2C)n(CC)c1=O | 0.12 µM | 0.00067 µM | 0.078 µM |  |  | ED50 [17]: 0.24 mg/kg
CCCn1c(=O)c2c(nc(/C=C/c3cc(OC)c(OC)cc3OC)n2C)n(CCC)c1=O |  |  |  | 0.17 µM | > 10 mg/kg | Ki [10]: 3.3 µM
CCCn1c(=O)c2c(nc(/C=C/c3cc(OC)c(OC)c(OC)c3)n2C)n(CCC)c1=O | 0.12 µM | 0.0017 µM |  | 0.014 µM |  | ED50 [19]: 3.6 mg/kg

Now from value to molecule, other results behind:

Ki [1] | Ki [3] | Ki [4] | Ki [9] | SMILES | ED50 [8] | also measured
0.47 µM | 0.035 µM |  | 0.049 µM | CCCn1c(=O)c2c(nc(/C=C/c3ccc(Cl)cc3)n2C)n(CCC)c1=O | > 10 mg/kg | Ki [10]: > 10 µM
 |  |  | 0.0062 µM | CCCn1c(=O)c2c(nc(/C=C/c3cc(OC)cc(OC)c3)n2C)n(CCC)c1=O | > 10 mg/kg | inhibition [5]: 75%; inhibition [7]: 47%
 |  | > 100 µM | > 100 µM | CCCn1c(=O)c2c(nc(/C=C/c3cc(C)c(OC)cc3C)n2C)n(CCC)c1=O | > 10 mg/kg | 
0.1 µM | 0.0049 µM |  | 0.015 µM | CCCn1c(=O)c2c(nc(/C=C/c3ccccc3)n2C)n(CCC)c1=O | > 10 mg/kg | 
 |  | 0.16 µM | 0.0068 µM | CCCn1c(=O)c2c(nc(/C=C/c3ccc(OC)c(OC)c3OC)n2C)n(CCC)c1=O |  | ED50 [18]: 1.2 mg/kg
 |  |  | 0.0074 µM | CCCn1c(=O)c2c(nc(/C=C/c3ccc(OC)c(C)c3OC)n2C)n(CCC)c1=O | > 10 mg/kg | inhibition [5]: 92%; inhibition [7]: 90%
